Data on four molecules can be found in article PMC7226045, “Ensartinib (X-396) Effectively Modulates Pharmacokinetic Resistance Mediated by ABCB1 and ABCG2 Drug Efflux Transporters and CYP3A4 Biotransformation Enzyme” (Cancers, 2020).

Like-named read-outs stand apart in the source and are kept apart here.

In general, IC50 refers to the point on the concentration scale where inhibition reaches its midpoint. As usually defined, the viability is a per cent measure of how many cells are alive, often set against a control.

In one data set the test system is MDCKII-parent cells. Kind of data set: MTT proliferation / drug combination assay, MDCKII-parent. It is filed as cell-based, canine. The conditions noted are these: Canis lupus familiaris, 48 h. The procedure: (§1) MTT proliferation assay was performed as described previously.
Another data set concerns MDCKII-ABCG2 cells. Put plainly: MTT proliferation / drug combination assay, MDCKII-ABCG2. In kind it is cell-based, canine. The conditions noted are these: Canis lupus familiaris, cytostatic alone or with 10 µM ensartinib, 48 h. The protocol:
as §1

In another data set the test system is HL60-parent cells. Put plainly: XTT proliferation / drug combination assay, HL60-parent. In kind it is cell-based, human. The conditions noted are these: Homo sapiens, 48 h.
The subject of another data set is HL60-ABCG2 cells. Kind of data set: XTT proliferation / drug combination assay, HL60-ABCG2. Conditions: Homo sapiens, cytostatic alone or with 10 µM ensartinib, 48 h. In kind it is cell-based, human. The procedure:
(§2) The MTT method is not readily adapted for use with suspension cell cultures, therefore the XTT assay was used to assess the proliferation of HL60 cells. Briefly, HL60-par, HL60-ABCB1, HL60-ABCG2, and HL60-ABCC1 cells were seeded at 2 × 10^4 cells/well in 96-well culture plates. Immediately after seeding, dilutions of the tested drugs or drug combinations were added to the cells. The plates were then incubated under standard conditions (37 °C, 5% CO2) for 48 h, after which XTT solution in PBS (1 mg/mL) and phenazine methosulfate (7.50 µg/mL) were added to the cells and the plates were incubated for another 5 h. Finally, the cells’ absorbance was measured at 450 nm using a microplate reader (Infinite M200, Tecan, Salzburg, Austria). This method was used to assess the effect of ABC transporters on sensitivity to ensartinib and in drug combination assays.
(§3) Experiments focusing on the modulation of ABC transporter-mediated resistance were performed as described previously. The parent MDCKII and HL60 cells and their ABCB1-, ABCG2-, and ABCC1-overexpressing counterparts were seeded at the densities specified above onto 96-well culture plates and cultured for 24 h. The medium was subsequently replaced with serial dilutions of ensartinib alone or with various concentrations of a model MDR-susceptible cytostatic agent (daunorubicin or mitoxantrone) with or without 10 µM ensartinib. After 48 h incubation, the cells’ viability was determined as described above. In addition to performing IC50-shift analyses, the viability measurements were converted to FA (fraction of cells affected) values and the effects of drug combinations were quantified using the Chou-Talalay combination index (CI) method as implemented in CompuSyn 3.0.1 (ComboSyn Inc., Paramus, NJ, USA). The effects of concomitantly administered drugs were classified as synergistic (CI < 0.9), additive (0.9 < CI < 1.1), or antagonistic (CI > 1.1) based on the computed CI values.

Another data set has as its system HepG2-CYP3A4 cells. Put plainly: Docetaxel combination assay (MTT), HepG2-CYP3A4. It is filed as cell-based, human. The conditions noted are these: 1 µM docetaxel. The protocol:
as §1
(§4) Cell viability was measured after a 48 h incubation using the MTT method as described above. […] Sensitization effects of < 0%, 0%, and >0% indicate antagonism, additivity, and synergism, respectively.

The test system of the next data set is HepG2-EV cells. Put plainly: Docetaxel combination assay (MTT), HepG2-EV. It is filed as cell-based, human. The conditions noted are these: 1 µM docetaxel, <0% antagonism, =0% additivity, >0% synergism. The procedure: as §1, §4
The next data set relates to MDCKII-ABCB1 cells. Put plainly: MTT proliferation / drug combination assay, MDCKII-ABCB1. The conditions noted are these: Canis lupus familiaris, 48 h. The protocol: MTT proliferation assay was performed as described previously. Cells were seeded on a 96-well culture plate at densities (in units of cells/well) of 1.3 × 10^4 for MDCKII-par, MDCKII-ABCB1, MDCKII-ABCG2, and MDCKII-ABCC1; 1.2 × 10^4 for A431-par, A431-ABCB1, A431-ABCG2 and A431-ABCC1; 1.2 × 10^4 for NCI-H1299; 2.0 × 10^4 for Caco-2; 5.0 × 10^4 for LS174T; and 6.0 × 10^4 for HepG2-CYP3A4 and HepG2-EV. After seeding, the cells were cultured for 24 h, then the media was removed and the cells were treated with serial dilutions of a drug or drug combination for 48 h. Vehicles containing media and 40% DMSO in media served as 100% and 0% viability controls, respectively. Upon completion of the 48 h period, the cells were washed once with 1× PBS, the media was replaced with an MTT solution in Opti-MEM (1 mg/mL), and the cells were incubated under standard conditions for 60 min. MTT solution was carefully removed and the resulting formazan crystals were immediately solubilized in DMSO. The cells were then shaken gently for 10 min, after which absorbance of their lysate was measured at 570 nm and 690 nm using a microplate reader (Infinite M200, Tecan, Salzburg, Austria); background values obtained at 690 nm were subtracted from the measurements obtained at 570 nm. This method was used to assess the effect of ABC transporters on sensitivity to ensartinib, in drug combination assays, and to identify drug concentrations appropriate for use in induction studies.
as §3

Another data set relates to HL60-ABCB1 cells. Kind of data set: XTT proliferation / drug combination assay, HL60-ABCB1. The conditions noted are these: Homo sapiens, 48 h. The procedure:
as §2, §3
A general note: Tetrazolium dyes change colour on reduction, which living cells bring about.

Method for HL60-parent cells: The parent MDCKII and HL60 cells and their ABCB1-, ABCG2-, and ABCC1-overexpressing counterparts were seeded at the densities specified above onto 96-well culture plates and cultured for 24 h. The medium was subsequently replaced with serial dilutions of ensartinib alone or with various concentrations of a model MDR-susceptible cytostatic agent (daunorubicin or mitoxantrone) with or without 10 µM ensartinib. After 48 h incubation, the cells’ viability was determined as described above. In addition to performing IC50-shift analyses, the viability measurements were converted to FA (fraction of cells affected) values and the effects of drug combinations were quantified using the Chou-Talalay combination index (CI) method as implemented in CompuSyn 3.0.1 (ComboSyn Inc., Paramus, NJ, USA). The effects of concomitantly administered drugs were classified as synergistic (CI < 0.9), additive (0.9 < CI < 1.1), or antagonistic (CI > 1.1) based on the computed CI values [57].

For the molecule `O=C1c2c(O)ccc(O)c2C(=O)c2c(NCCNCCO)ccc(NCCNCCO)c21` [mitoxantrone], the IC50 in the data set on MDCKII-parent cells (MDCKII-parent, cytostatic alone or with 10 µM ensartinib, read-out: IC50) was 1.59 µM; with MDCKII-ABCG2 cells, 9.98 µM; with HL60-parent cells (HL60-parent, cytostatic alone or with 10 µM ensartinib, read-out: IC50) it was 0.0305 µM; in the data set with HL60-ABCG2 cells, 0.666 µM.

Regarding `CC(=O)N1CCN(c2ccc(OCC3COC(Cn4ccnc4)(c4ccc(Cl)cc4Cl)O3)cc2)CC1` (centres unmarked) [ketoconazole], the “sensitization effect of combination with docetaxel” value with HepG2-CYP3A4 cells (HepG2-CYP3A4, <0% antagonism, =0% additivity, >0% synergism) is recorded as “synergistic”; with HepG2-EV cells, “antagonistic”.

As to `CC(=O)O[C@@]12CO[C@@H]1C[C@H](O)[C@@]1(C)C(=O)[C@H](O)C3=C(C)[C@@H](OC(=O)[C@H](O)[C@@H](NC(=O)OC(C)(C)C)c4ccccc4)C[C@@](O)([C@@H](OC(=O)c4ccccc4)[C@H]21)C3(C)C` [docetaxel], in the data set on HepG2-CYP3A4 cells (Homo sapiens, 48 h, HepG2-CYP3A4 vs HepG2-EV, read-out: viability of CYP3A4-overexpressing cells greater than that of empty vector cells), the viability at 1 µM is 24.4%.

As for `COc1cccc2c1C(=O)c1c(O)c3c(c(O)c1C2=O)C[C@@](O)(C(C)=O)C[C@@H]3O[C@H]1C[C@H](N)[C@H](O)[C@H](C)O1` [daunorubicin], the IC50 is 0.947 µM in the data set with MDCKII-parent cells, 11.9 µM in the data set on MDCKII-ABCB1 cells, 0.0531 µM in the data set on HL60-parent cells and 2.39 µM in the data set with HL60-ABCB1 cells.
